Measured values as given in patent publication US12391671B2, “Allosteric EGFR inhibitors and methods of use thereof” (Dana-Farber Cancer Institute, Inc., priority 2019, dated 2025).
pIC50: −log10 of the molar value. Structures can show the parent of a compound that is named as a salt. Where two headings read alike, the source gives them in different places.

How the values were obtained:
[1] = tested on: EGFR mutant L858R/T790M Ba/F3 cells; experiment: Ba/F3 cell proliferation model (Cell Titer Glo), EGFR L858R/T790M; assay type: cell-based, murine; conditions: 72 hours
Summary of the method: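 Retrovirally transduced Ba/F3 cells exposed 72 h to compound alone or with 1 μg/mL cetuximab, triplicate points, repeated at least three times. Viability by Cell Titer Glo luminescence (ATP); curves fitted by non-linear sigmoidal dose-response regression.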

[2] = tested on: EGFR mutant L858R Ba/F3 cells; experiment: Ba/F3 cell proliferation model (Cell Titer Glo), EGFR L858R; assay type: cell-based, murine; conditions: 72 hours
Description: Example 26: Ba/F3 Cell Proliferation Models
The EGFR mutant L858R and L858R/T790M Ba/F3 cells have been previously described (Zhou, W., et al. Nature 462, 2009, 1070-1074). All cell lines were maintained in RPM 1640 (Cellgro; Mediatech Inc., Herndon. CA) supplemented with 10% FBS, 100 units/mL penicillin, 100 units/mL streptomycin. The EGFR I941R mutation was introduced via site directed mutagenesis using the Quick Change Site-Directed Mutagenesis kit (Stratagene; La Jolla, CA) according to the manufacturer's instructions. All constructs were confirmed by DNA sequencing. The constructs were shuttled into the retroviral vector JP1540 using the Cre-recombination system (Agilent Technologies, Santa Clara, CA). Ba/F3 cells were then infected with retrovirus per standard protocols, as described previously (Zhou, et al, Nature 2009). Stable clones were obtained by selection in puromycin (2 μg/ml).
Growth and inhibition of growth was assessed by the Cell Titer Glo® assay (Promega, Madison, WI) and was performed according to the manufacturer's instructions. The Cell Titer Glo® assay is a luminescence-based method used to determine the number of viable cells based on quantitation of the ATP present, which is directly proportional to the amount of metabolically active cells present. Ba/F3 cells of different EGFR genotypes were exposed to compounds as a single agent or in combination with 1 μg/mL cetuximab for 72 hours and the number of cells used per experiment was determined empirically as has been previously established (Zhou, et al., Nature 2009). All experimental points were set up in triplicates in 384-well plates and all experiments were repeated at least three times. […] The curves were fitted using a non-linear regression model with a sigmoidal dose response.

EGFR L858R/T790M = EGFR L858R/T790M (Homo sapiens (Human), UniProt P00533, L858R/T790M); experiment: HTRF-based EGFR biochemical assay (L858R/T790M); conditions: 100 μM ATP, enzyme 0.02 nM
Summary of the method: (§1)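 Mutant EGFR (L858R 0.1 nM, L858R/T790M 0.02 nM) preincubated 30 min with compounds at room temperature in HEPES pH 7.0 buffer with Mg2+/Mn2+, then reacted 20 min with 1 μM biotinylated tyrosine kinase peptide and 100 μM ATP. Phosphorylation read by HTRF (Eu-cryptate anti-phosphotyrosine/streptavidin-XL665, 665/620 nm) after EDTA quench.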

EGFR L858R = EGFR L858R (Homo sapiens (Human), UniProt P00533, L858R); experiment: HTRF-based EGFR biochemical assay (L858R); conditions: 100 μM ATP, enzyme 0.1 nM
Summary of the method: as §1

[3] = Mus musculus, BaF3, single agent, read-out: Cell IC50 BaF3 EGFR L858R/T790M
[4] = in combination with 1 μg/mL cetuximab, read-out: Cell IC50 BaF3 EGFR L858R/T790M (+cetux.)
[5] = Mus musculus, BaF3, single agent, read-out: Cell IC50 BaF3 EGFR L858R
[6] = in combination with 1 μg/mL cetuximab, read-out: Cell IC50 BaF3 EGFR L858R (+cetux.)

EGFR L858R/T790M, sequence (P00533 25-1210 T790M/L858R): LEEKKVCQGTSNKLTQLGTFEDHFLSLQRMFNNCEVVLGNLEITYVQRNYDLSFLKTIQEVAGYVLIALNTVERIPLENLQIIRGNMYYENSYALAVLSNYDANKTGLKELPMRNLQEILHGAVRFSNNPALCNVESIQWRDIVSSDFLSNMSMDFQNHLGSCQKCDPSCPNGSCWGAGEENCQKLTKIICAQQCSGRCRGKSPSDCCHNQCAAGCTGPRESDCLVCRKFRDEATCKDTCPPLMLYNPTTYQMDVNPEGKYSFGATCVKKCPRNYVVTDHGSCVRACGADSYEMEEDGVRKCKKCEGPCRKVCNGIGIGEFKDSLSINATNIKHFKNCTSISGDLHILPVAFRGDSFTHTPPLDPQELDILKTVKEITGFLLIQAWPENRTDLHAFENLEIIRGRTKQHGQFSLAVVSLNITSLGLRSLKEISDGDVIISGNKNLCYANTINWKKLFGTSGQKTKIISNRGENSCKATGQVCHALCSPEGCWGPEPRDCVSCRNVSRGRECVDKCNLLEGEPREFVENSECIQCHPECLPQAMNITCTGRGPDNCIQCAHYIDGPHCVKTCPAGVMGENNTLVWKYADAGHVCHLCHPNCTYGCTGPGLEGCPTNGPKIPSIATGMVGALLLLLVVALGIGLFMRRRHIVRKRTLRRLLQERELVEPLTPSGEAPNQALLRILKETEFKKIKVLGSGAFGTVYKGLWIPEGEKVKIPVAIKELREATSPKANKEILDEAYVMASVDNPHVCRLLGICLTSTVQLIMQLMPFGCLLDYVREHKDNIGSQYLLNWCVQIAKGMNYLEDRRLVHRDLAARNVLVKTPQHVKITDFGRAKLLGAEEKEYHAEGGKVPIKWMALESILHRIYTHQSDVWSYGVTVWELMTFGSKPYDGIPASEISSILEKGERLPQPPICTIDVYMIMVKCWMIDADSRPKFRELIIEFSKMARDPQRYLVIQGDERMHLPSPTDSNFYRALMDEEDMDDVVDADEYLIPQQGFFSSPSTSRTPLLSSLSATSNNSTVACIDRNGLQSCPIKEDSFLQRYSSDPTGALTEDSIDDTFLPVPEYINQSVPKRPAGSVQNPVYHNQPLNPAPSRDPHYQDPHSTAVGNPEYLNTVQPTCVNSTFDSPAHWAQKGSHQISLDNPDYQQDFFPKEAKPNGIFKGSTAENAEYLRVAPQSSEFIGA
EGFR L858R, sequence (P00533 25-1210 L858R): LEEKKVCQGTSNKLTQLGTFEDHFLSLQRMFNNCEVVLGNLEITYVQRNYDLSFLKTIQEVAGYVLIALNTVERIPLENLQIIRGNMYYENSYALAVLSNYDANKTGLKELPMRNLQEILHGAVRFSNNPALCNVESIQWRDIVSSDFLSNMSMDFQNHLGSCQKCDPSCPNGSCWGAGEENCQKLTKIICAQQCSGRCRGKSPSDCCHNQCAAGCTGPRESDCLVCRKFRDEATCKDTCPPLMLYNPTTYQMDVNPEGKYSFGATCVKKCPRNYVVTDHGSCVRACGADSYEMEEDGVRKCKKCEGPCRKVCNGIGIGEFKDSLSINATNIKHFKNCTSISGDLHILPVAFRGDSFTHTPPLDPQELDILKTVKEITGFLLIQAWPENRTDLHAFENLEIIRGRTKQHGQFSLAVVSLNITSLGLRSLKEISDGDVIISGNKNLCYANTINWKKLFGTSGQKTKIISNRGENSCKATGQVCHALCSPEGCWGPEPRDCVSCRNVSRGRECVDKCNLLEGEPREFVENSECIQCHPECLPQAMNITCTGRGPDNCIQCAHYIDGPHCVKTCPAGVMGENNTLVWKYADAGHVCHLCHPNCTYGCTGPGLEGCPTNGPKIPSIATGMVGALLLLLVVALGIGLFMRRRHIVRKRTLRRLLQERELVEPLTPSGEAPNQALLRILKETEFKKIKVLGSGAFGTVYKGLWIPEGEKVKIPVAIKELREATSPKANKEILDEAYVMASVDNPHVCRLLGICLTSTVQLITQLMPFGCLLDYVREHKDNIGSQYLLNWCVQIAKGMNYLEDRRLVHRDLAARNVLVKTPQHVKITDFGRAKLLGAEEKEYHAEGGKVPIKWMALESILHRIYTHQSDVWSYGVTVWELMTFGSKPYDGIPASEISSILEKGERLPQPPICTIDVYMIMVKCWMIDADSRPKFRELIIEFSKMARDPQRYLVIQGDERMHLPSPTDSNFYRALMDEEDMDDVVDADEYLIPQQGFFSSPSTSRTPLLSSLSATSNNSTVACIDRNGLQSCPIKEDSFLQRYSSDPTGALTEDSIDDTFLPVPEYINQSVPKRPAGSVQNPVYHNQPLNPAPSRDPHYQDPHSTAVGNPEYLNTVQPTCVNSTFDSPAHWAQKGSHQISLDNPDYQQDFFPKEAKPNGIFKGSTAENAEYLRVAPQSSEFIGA

| pIC50 [1, 3] | pIC50 [1, 4] | pIC50 [2, 5] | pIC50 [2, 6] | pIC50 (EGFR L858R/T790M) | pIC50 (EGFR L858R) | SMILES |
| --- | --- | --- | --- | --- | --- | --- |
| 6.36 | 8.22 | 5.87 | 6.77 | – | – | CN1CCC(c2ccc(-c3ccc4c(c3)C(=O)N(C(c3nc5cccc(F)c5[nH]3)c3cc(F)ccc3O)C4)cc2)CC1 (stereo not shown) [Compound 020, 2-[(7-Fluoro-1H-benzimidazol-2-yl)-(5-fluoro-2-hydroxy-phenylmethyl]-6-(4-(1-methy-4-piperidyl)phenyl]isoindolin-1-one; hydrochloride] |
| 6.68 | 8.15 | 6.02 | 7.30 | – | – | CN1CCC(c2ccc(-c3ccc4c(c3F)C(=O)N(C(c3nc5ccccc5[nH]3)c3cc(F)ccc3O)C4)cc2)CC1 (stereo not shown) [Compound 032, 2-[1H-benzimidazol-2-yl-(5-fluoro-2-hydroxy-phenyl)methyl]-7-fluoro-6-[4-(1-methyl-4-piperidyl)phenyl]isoindolin-1-one;hydrochloride] |
| 6.38 | 8.30 | 5.84 | 7.22 | 9.15 | 8.40 | CN1CCC(c2ccc(-c3ccc4cn(C(c5nc6ccccc6[nH]5)c5cc(F)ccc5O)nc4c3F)cc2)CC1 (stereo not shown) [Compound 034, 2-[1H-benzimidazol-2-yl-[7-fluoro-6-[4-(1-methyl-4-piperidyl)phenyl]indazol-2-yl]methyl]-4-fluoro-phenol;hydrochloride] |
| 6.92 | 7.70 | 6.96 | – | 9.00 | 8.70 | CCc1c(-c2ccc(C3CCN(C)CC3)cc2)ccc2ncn(C(c3nc4ccccc4[nH]3)c3cc(F)ccc3O)c(=O)c12 (stereo not shown) [Compound 074, 3-[1H-benzimidazol-2-yl-(5-fluoro-2-hydroxy-phenyl)methyl]-5-ethyl-6-[4-(1-methyl-4-piperidyl)phenyl]-quinazolin-4-one; dihydrochloride] |
| 6.28 | 8.00 | 6.44 | – | 8.30 | 8.05 | CN1CCC(c2ccc(-c3ccc4c(=O)n(C(c5nc6ccccc6[nH]5)c5cc(F)ccc5O)ccc4c3)cc2)CC1 (racemic) [Compound 069, Rac-2-(1H-1,3-benzodiazol-2-yl)(5-fluoro-2-hydroxyphenyl)methyl]-6-[4-(1-methylpiperidin-4-yl)phenyl]-1,2-dihydroisoquinolin-1-one] |
| 5.98 | 6.92 | 5.75 | – | 8.22 | 7.92 | O=C1c2cc(-c3ccc(OC4CNC4)cc3)ccc2CN1C(c1nc2ccccc2[nH]1)c1cc(F)ccc1O (stereo not shown) [Compound 091, 6-[4-(azetidin-3-yloxy)phenyl]-2-[1H-benzimidazol-2-yl-(5-fluoro-2-hydroxy-phenyl)methyl]isoindolin-1-one; dihydrochloride] |
| 6.70 | – | 6.20 | – | 9.22 | 9.00 | CN1CCC(c2ccc(-c3ccc4c(c3)C(=S)N([C@@H](c3nc5ccccc5[nH]3)c3cc(F)ccc3O)C4)cc2)CC1 (single isomer, unassigned) [Compound 083] |
| 6.66 | 7.70 | 6.17 | – | 9.22 | 8.52 | Cc1c(-c2ccc(C3CCN(C)CC3)cc2)ccc2c1C(=O)N(C(c1nc3ccccc3[nH]1)c1cc(F)ccc1O)C2 (stereo not shown) [Compound 082, 2-[1H-benzimidazol-2-yl-(5-fluoro-2-hydroxy-phenyl)methyl]-7-methyl-6-[4-(1-methyl-4-piperidyl)phenyl]isoindolin-1-one; dihydrochloride] |
| 5.23 | – | 5.34 | – | – | – | Cc1nnc(C(c2cc(F)ccc2O)N2Cc3ccc(-c4ccc(C5CCN(C)CC5)cc4)cc3C2=O)[nH]1 (stereo not shown) [Compound 089, 2-[(5-fluoro-2-hydroxy-phenyl)-(5-methyl-4H-1,2,4-triazol-3-yl)methyl]-6-[4-(1-methyl-4-piperidyl)phenyl]isoindolin-1-one;hydrochloride] |
| 5.80 | 8.00 | – | – | 8.70 | 8.15 | CN(C)CCOc1ccc(-c2ccc3c(c2)C(=O)N(C(c2nc4ccccc4[nH]2)c2cc(F)ccc2O)C3)cc1 (stereo not shown) [Compound 040, 2-[1H-benzimidazol-2-yl-(5-fluoro-2-hydroxy-phenyl)methyl]-6-[4-[2-(dimethyl-amino)ethoxy]phenyl]isoindolin-1-one;hydrochloride] |
| 5.46 | 7.70 | – | – | 8.30 | 8.05 | CN1CCC(c2ccc(-c3ccc4c(c3)C(=O)N(C(c3nc5cncnc5[nH]3)c3cc(F)ccc3O)C4)cc2)CC1 (stereo not shown) [Compound 018, 2-[(5-Fluoro-2-hydroxy-phenyl)-(9H-purin-8-yl)methyl]-6-[4-(1-methyl-4-piperidyl)phenyl]isoindoiin-1-one; hydrochloride] |
| 6.21 | 8.00 | – | – | 8.22 | 7.32 | Nc1ccc(C#Cc2ccc3c(c2)C(=O)N(C(c2nc4ccccc4[nH]2)c2cc(F)ccc2O)C3)cn1 (stereo not shown) [Compound 012, 6-[2-(6-Amino-3-pyridyl)ethynyl]-2-[1H-benzimidazol-2-yl-(5-fluoro-2-hydroxy-phenyl)methyl]isoindolin-1-one] |
| 6.10 | 7.70 | – | – | 7.96 | 7.16 | Nc1ccc(-c2ccc(-c3ccc4c(c3)C(=O)N(C(c3nc5ccccc5[nH]3)c3cc(F)ccc3O)C4)cc2)cn1 (stereo not shown) [Compound 061, 6-[4-(6-amino-3-pyridyl)phenyl]-2-[1H-benzimidazol-2-yl-(5-fluoro-2-hydroxy-phenyl)-methyl]isoindolin-1-one; hydrochloride] |
| < 5.00 | 6.43 | – | – | 8.10 | 7.35 | CN1CCC(c2ccc(-c3ccc4c(c3)C(=O)N(C(c3nc5cccnc5[nH]3)c3n[nH]c5c3CCC5)C4)cc2)CC1 (stereo not shown) [Compound 031, 2-[1H-Imidazo[4,5-b]pyridin-2-yl(1,4,5,6-tetrahydrocyclopenta[c]pyrazol-3-yl)methyl]-6-[4-(1-methyl-4-piperidy)phenyl]isoindolin-1-one] |
| 6.02 | 7.70 | – | – | 8.70 | 8.30 | CN(C)CCN(C)c1ccc(-c2ccc3c(c2)C(=O)N(C(c2nc4ccccc4[nH]2)c2cc(F)ccc2O)C3)cc1 (stereo not shown) [Compound 041, 2-[1H-benzimidazol-2-yl-(5-fluoro-2-hydroxy-phenyl)-methyl]-6-[4-[2-(dimethylamino)-ethyl-methyl-amino]phenyl]-isoindolin-1-one; hydrochloride] |
| 5.44 | 6.28 | – | – | 7.38 | 6.29 | COc1ccc(F)cc1C(c1nc2ccccc2[nH]1)n1cc2ccc(-c3ccc(C4CCN(C)CC4)cc3)c(F)c2n1 (stereo not shown) [Compound 035, 2-[1H-benzimidazol-2-yl-(5-fluoro-2-methoxy-phenyl)methyl]-7-fluoro-6-[4-(1-methyl-4-piperidyl)phenyl]indazole] |
| 6.23 | 8.00 | – | – | 9.15 | 8.52 | CN1CCC(F)(c2ccc(-c3ccc4c(c3)C(=O)N(C(c3nc5ccccc5[nH]3)c3cc(F)ccc3O)C4)cc2)CC1 (stereo not shown) [Compound 016, 2-[1H-Benzimidazol-2-yl-(5-fluoro-2-hydroxy-phenyl)methyl]-6-[4-(4-fluoro-1-methyl-4-piperidyl)phenyl]isoindolin-1-one; hydrochloride] |

| SMILES | pIC50 [1, 3] | pIC50 [1, 4] | pIC50 [2, 5] | pIC50 [2, 6] | pIC50 (EGFR L858R/T790M) | pIC50 (EGFR L858R) |
| --- | --- | --- | --- | --- | --- | --- |
| COc1ccc2[nH]c(C(c3cc(F)ccc3O)N3Cc4ccc(-c5ccc(C6CCN(C)CC6)cc5)cc4C3=O)nc2c1 (stereo not shown) [Compound 048, 2-[(5-fluoro-2-hydroxy-phenyl)-(5-methoxy-1H-benzimidazol-2-yl)methyl]-6-[4-(1-methyl-4-piperidyl)phenyl]isoindolin-1-one; formic acid] | 5.32 | 6.12 | – | – | 8.40 | 7.46 |
